In patent US20230303561A1, “PYRIMIDINONE DERIVATIVE, PREPARATION METHOD THEREOF AND USE THEREOF IN RESISTING MYCOBACTERIUM TUBERCULOSIS INFECTION” (INSTITUTE OF MEDICINAL BIOTECHNOLOGY, CHINESE ACADEMY OF …, priority 2020, published 2023):
Values after ≈ are worked out from the molar mass of the structure shown. Like-named read-outs stand apart in the source and are kept apart here.

Tested on: MTB H37Rv
Test: Bacteriostasis experiment: MIC in 96-well plate, two-fold dilution method
Type: cell-based, Mycobacterium tuberculosis
Settings: for MIC: Mycobacterium tuberculosis, ATCC 27294 / H37Rv, 240 h, read-out: Inhibitory activity against Mycobacterium tuberculosis, MIC, MTB H37Rv
[1] = MTB H37Rv (ATCC 27294), 7H9 medium, 37° C., about 10 days

Row | SMILES | MIC [1] | other results
1 | CCCSc1nc2c(c(=O)[nH]1)C(C1CCCC1)CC(=O)N2 (centres unmarked) [LSL-11-31, 2-propylmercapto-5-cyclopentyl-5,6-dihydropyrido[2,3-d]pyrimidin-4,7(3H,8H)-dione] | 16 µg/mL (≈ 52 µM) | 
2 | CCCSc1nc2c(c(=O)[nH]1)C(c1ccc3c(c1)CCO3)CC(=O)N2 (centres unmarked) [LSL-11-33, 2-propylmercapto-5-(2,3-dihydrobenzofuran-5-yl)-5,6-dihydropyrido[2,3-d]pyrimidin-4,7(3H,8H)-dione] | 2 µg/mL (≈ 5.6 µM) | 
3 | CCCSc1nc2c(c(=O)[nH]1)C(c1ccc3nccnc3c1)CC(=O)N2 (centres unmarked) [LSL-11-34, 2-propylmercapto-5-(quinoxalin-6-yl)-5,6-dihydropyrido[2,3-d]pyrimidin-4,7(3H,8H)-dione] | 4 µg/mL (≈ 10.9 µM) | 
4 | CCCSc1nc2c(c(=O)[nH]1)C(c1ccc(OC)nc1)CC(=O)N2 (centres unmarked) [LSL-11-35, 2-propylmercapto-5-(6-methoxypyridin-3-yl)-5,6-dihydropyrido[2,3-d]pyrimidin-4,7(3H,8H)-dione] | 1 µg/mL (≈ 2.89 µM) | 
5 | CCCSc1nc2c(c(=O)[nH]1)C(c1cnc3ccccc3c1)CC(=O)N2 (centres unmarked) [LSL-11-36, 2-propylmercapto-5-(quinolin-3-yl)-5,6-dihydropyrido[2,3-d]pyrimidin-4,7(3H,8H)-dione] | 8 µg/mL (≈ 21.8 µM) | 
6 | CCCSc1nc2c(c(=O)[nH]1)C(c1ccoc1)CC(=O)N2 (centres unmarked) [LSL-11-38, 2-propylmercapto-5-(furan-3-y1)-5,6-dihydropyrido[2,3-d]pyrimidin-4,7(3H,8H)-dione] |  | Inhibitory activity against Mycobacterium tuberculosis, MIC, MTB H37Rv [1]: 1 µg/mL
7 | CCCCCCCOc1ccc(C2CC(=O)Nc3nc(SCCC)[nH]c(=O)c32)cc1 (centres unmarked) [LSL-11-39, 2-propylmercapto-5-(4-heptoxyphenyl)-5,6-dihydropyrido[2,3-d]pyrimidin-4,7(3H,8H)-dione] |  | anti-mycobacterium tuberculosis MIC compared with the positive control drug INH (MTB H37Rv, statement on Table 1 data): equivalent to that of the positive control drug INH; MIC: 0.625 µg/mL (≈ 1.45 µM)
